Measurements published in patent publication US4753953A, “Pyridonecarboxylic acid derivatives and antibacterial pharmaceutical compositions thereof” (priority 1985, dated 1988).
Like-named read-outs stand apart in the source and are kept apart here.

Columns and labels:
[1] = tested on: Bacillus subtilis PCI 219; test: MIC, in vitro antibacterial activity (standard strains); assay type: cell-based
[2] = tested on: Staphylococcus aureus 209 P; test: as above; assay type: cell-based; details: 10^6 cells/ml, Gram +
S. aureus Smith = test: as above; assay type: cell-based, Staphylococcus aureus; details: 10^6 cells/ml, Gram +
[3] = tested on: S. aureus IID 670 (Terajima); test: as above; assay type: cell-based, Staphylococcus aureus
S. epidermidis IID 866 = test: as above; assay type: cell-based; details: 10^6 cells/ml, Gram +
[4] = tested on: Streptococcus pyogenes (S-8); test: as above; assay type: cell-based
S. pyogenes IID 692 = test: as above; assay type: cell-based, Streptococcus pyogenes; details: 10^6 cells/ml, Gram +
S. pneumoniae IID 552 = test: as above; assay type: cell-based; details: 10^6 cells/ml, Gram +
E. faecalis IID 682 = test: as above; assay type: cell-based
[5] = tested on: Escherichia coli NIHJ JC-2; test: as above; assay type: cell-based; details: 10^6 cells/ml, Gram -
E. coli ATCC 10536 = test: as above; assay type: cell-based, Escherichia coli; details: 10^6 cells/ml, Gram -
E. coli ML 4707 [6] = test: as above; assay type: cell-based, Escherichia coli; details: Gram -, Table 1
[7] = tested on: Proteus vulgaris IFO 3167; test: as above; assay type: cell-based
P. mirabilis IID 994 = test: as above; assay type: cell-based; details: 10^6 cells/ml, Gram -
[8] = tested on: Morganella morganii IID 602; test: as above; assay type: cell-based; details: 10^6 cells/ml, Gram -
[9] = tested on: Klebsiella pneumoniae KY(GN)6445; test: as above; assay type: cell-based; details: 10^6 cells/ml, Gram -
K. pneumoniae 1-220S = test: as above; assay type: cell-based, Klebsiella pneumoniae
[10] = tested on: Enterobacter cloacae IID 977; test: as above; assay type: cell-based; details: 10^6 cells/ml, Gram -
[11] = tested on: Citrobacter freundii IID 976; test: as above; assay type: cell-based
[12] = tested on: Serratia marcescens IID 618; test: as above; assay type: cell-based; details: 10^6 cells/ml, Gram -
Shigella sonnei IID 969 = test: as above; assay type: cell-based; details: 10^6 cells/ml, Gram -
Protocol: Minimal inhibitory concentrations (MICs) were determined in accordance with the method recommended by Japan Society of Chemotherapy.

[13] = tested on: Salmonella enteritidis IID 604; test: as above; assay type: cell-based; details: 10^6 cells/ml, Gram -
[14] = tested on: Pseudomonas aeruginosa V-1; test: as above; assay type: cell-based
P. aeruginosa IFO 12689 = test: as above; assay type: cell-based, Pseudomonas aeruginosa; details: 10^6 cells/ml, Gram -
P. aeruginosa IID 1210 = test: as above; assay type: cell-based, Pseudomonas aeruginosa; details: 10^6 cells/ml, Gram -
P. cepacia GIFU 518 = test: as above; assay type: cell-based; details: 10^6 cells/ml; Gram -
P. maltophilia GIFU 2491 = test: as above; assay type: cell-based; details: 10^6 cells/ml, Gram -
[15] = tested on: Yersinia enterocolitica IID 981; test: as above; assay type: cell-based; details: 10^6 cells/ml, Gram -
[16] = tested on: Acinetobacter anitratus IID 876; test: as above; assay type: cell-based
[17] = tested on: Alcaligenes faecalis 0114002; test: as above; assay type: cell-based
[18] = tested on: Bacteroides fragilis GM 7000; test: as above; assay type: cell-based
B. fragilis 0558 = test: as above; assay type: cell-based, Bacteroides fragilis
B. fragilis 25285 = test: as above; assay type: cell-based, Bacteroides fragilis
B. distasonis 8503 = test: as above; assay type: cell-based
[19] = tested on: B. thetaiotaomicron (0661); test: as above; assay type: cell-based; details: 10^6 cells/ml; Gram -
B. vulgatus KYA 29327 = test: as above; assay type: cell-based; details: 10^6 cells/ml; Gram -
[20] = tested on: Fusobacterium mortiferum 4249; test: as above; assay type: cell-based; details: 10^6 cells/ml; Gram -
F. necrophorum S-45 = test: as above; assay type: cell-based; details: 10^6 cells/ml; Gram -
F. varium KYA 8501 = test: as above; assay type: cell-based; details: 10^6 cells/ml, Gram -
[21] = tested on: Eubacterium lentum GAI 5242; test: as above; assay type: cell-based; details: 10^6 cells/ml; Gram +
E. limosum KYA 8486 = test: as above; assay type: cell-based; details: 10^6 cells/ml; Gram +
[22] = tested on: Propionibacterium acens 11828; test: as above; assay type: cell-based; details: 10^6 cells/ml; Gram +
[23] = tested on: Peptococcus magnus KY 017; test: as above; assay type: cell-based; details: 10^6 cells/ml; Gram +
C. perfringens KYA 13123 = test: microbe, parasite or virus in culture; assay type: cell-based; details: 10^6 cells/ml; Gram +
C. ramosum = test: MIC, in vitro antibacterial activity (standard strains); assay type: cell-based
[24] = tested on: Peptostreptococcus anaerobius KYA 27337; test: as above; assay type: cell-based; details: 10^6 cells/ml; Gram +
Pst. micros UPI 5464-1 = test: as above; assay type: cell-based; details: 10^6 cells/ml, Gram +
[25] = tested on: Veillonella parvula KYA 10790; test: as above; assay type: cell-based; details: 10^6 cells/ml, Gram -
E. coli ML 4707 [26] = test: Therapeutic efficacy against systemic infections in mice, E. coli ML 4707; details: Escherichia coli, ML4707, in Mus musculus, po, 1 h
MR S. aureus KYB 623 = test: Therapeutic efficacy against systemic infections in mice, MR S. aureus KYB 623; details: Staphylococcus aureus, in Mus musculus, po, 1 h
S. pneumoniae S-4288 = test: Therapeutic efficacy against systemic infections in mice, S. pneumoniae S-4288; details: Streptococcus pneumoniae, S4288, in Mus musculus, po, 1 h
[27] = tested on: Clostridium difficile I-E; test: MIC, in vitro antibacterial activity (standard strains); assay type: cell-based; details: Clostridioides difficile; 10^6 cells/ml; Gram +
[28] = Morganella morganii, IID602, read-out: MIC
[29] = Shigella sonnei, IID969, read-out: MIC

7-(3-Aminomethyl-4-methyl-1-pyrrolidinyl)-1-cyclopropyl-6,8-difluoro-1,4-dihydro-4-oxo-3-quinolinecarboxylic acid [Example 2]
0.05 µg/mL: MIC ([4]; 10^6 cells/ml, Gram +) | MIC (S. pyogenes IID 692) | MIC (S. pneumoniae IID 552) | MIC ([7]; 10^6 cells/ml, Gram -) | MIC (P. mirabilis IID 994) | MIC [9] | MIC (K. pneumoniae 1-220S; 10^6 cells/ml, Gram -) | MIC [10] | MIC ([11]; 10^6 cells/ml, Gram -) | MIC [13] | MIC [15] | MIC ([16]; 10^6 cells/ml, Gram -)
0.78 µg/mL: MIC (P. aeruginosa IFO 12689) | MIC (P. aeruginosa IID 1210) | MIC ([18]; 10^6 cells/ml, Gram -) | MIC [19] | MIC (B. vulgatus KYA 29327) | MIC (F. varium KYA 8501) | MIC [21] | MIC (C. ramosum; 10^6 cells/ml, Gram +)
0.0125 µg/mL: MIC ([1]; 10^6 cells/ml, Gram +)
1.56 µg/mL: MIC (E. limosum KYA 8486)
3.13 µg/mL: MIC (B. distasonis 8503; 10^6 cells/ml, Gram -)
0.10 µg/mL: MIC (E. faecalis IID 682; 10^6 cells/ml, Gram +) | MIC [8] | MIC [12] | MIC ([14]; 10^6 cells/ml, Gram -) | MIC [24]
0.025 µg/mL: MIC [2] | MIC (S. aureus Smith) | MIC ([3]; 10^6 cells/ml, Gram +) | MIC (S. epidermidis IID 866) | MIC [5] | MIC (E. coli ATCC 10536) | MIC (E. coli ML 4707 [6]; 10^6 cells/ml) | MIC (Shigella sonnei IID 969)
0.20 µg/mL: MIC (P. maltophilia GIFU 2491) | MIC ([17]; 10^6 cells/ml, Gram -) | MIC [23] | MIC (C. perfringens KYA 13123)
0.39 µg/mL: MIC (P. cepacia GIFU 518) | MIC (B. fragilis 0558; 10^6 cells/ml, Gram -) | MIC (B. fragilis 25285; 10^6 cells/ml, Gram -) | MIC [20] | MIC (F. necrophorum S-45) | MIC [22] | MIC (Pst. micros UPI 5464-1) | MIC [25]

O=C(O)c1cn(C2CC2)c2cc(N3CCNCC3)c(F)cc2c1=O [CPFX, ciprofloxacin, reference compound]
≤ 0.0063 µg/mL: MIC (E. coli ML 4707 [6]; Escherichia coli, ML4707, 10^6 cells/ml) | MIC ([7]; Proteus vulgaris, IFO3167) | MIC ([11]; Citrobacter freundii, IID976) | MIC (Shigella sonnei IID 969; [29])
6.25 µg/mL: MIC (B. fragilis 25285; Bacteroides fragilis, 25285) | MIC (B. distasonis 8503; Parabacteroides distasonis, 8503) | MIC (C. ramosum; Thomasclavelia ramosa)
0.2 µg/mL: MIC ([14]; Pseudomonas aeruginosa, V1) | MIC (Pst. micros UPI 5464-1; Parvimonas micra, UPI54641, read-out: MIC) | MIC ([25]; Veillonella parvula, KYA10790, read-out: MIC)
1.4 mg/kg: ED50 (E. coli ML 4707 [26])
0.05 µg/mL: MIC ([1]; Bacillus subtilis, PCI219) | MIC [8, 28] | MIC (K. pneumoniae 1-220S; Klebsiella pneumoniae, 1220S)
3.13 µg/mL: MIC ([18]; Bacteroides fragilis, GM7000) | MIC (B. fragilis 0558; Bacteroides fragilis, 0558)
37 mg/kg: ED50 (MR S. aureus KYB 623)
> 100 mg/kg: ED50 (S. pneumoniae S-4288)

CCn1cc(C(=O)O)c(=O)c2cc(F)c(N3CCNCC3)cc21 [NFLX, norfloxacin, reference compound]
0.78 µg/mL: MIC ([2]; Staphylococcus aureus, 209P, read-out: MIC) | MIC (S. aureus Smith; Staphylococcus aureus, read-out: MIC) | MIC (S. epidermidis IID 866; Staphylococcus epidermidis, IID866, read-out: MIC) | MIC (P. aeruginosa IFO 12689; Pseudomonas aeruginosa, IFO12689, read-out: MIC)
25 µg/mL: MIC ([18]; Bacteroides fragilis, GM7000, 10^6 cells/ml, Gram -, read-out: MIC) | MIC (B. fragilis 0558; Bacteroides fragilis, 0558, 10^6 cells/ml, Gram -, read-out: MIC) | MIC (B. fragilis 25285; Bacteroides fragilis, 25285, 10^6 cells/ml, Gram -, read-out: MIC)
6.25 µg/mL: MIC (P. maltophilia GIFU 2491; Stenotrophomonas maltophilia, GIFU2491, read-out: MIC)
100 µg/mL: MIC (F. varium KYA 8501; Fusobacterium varium, KYA8501, read-out: MIC)
0.05 µg/mL: MIC (E. coli ATCC 10536; Escherichia coli, ATCC10536, read-out: MIC) | MIC (E. coli ML 4707 [6]; Escherichia coli, ML4707, 10^6 cells/ml, read-out: MIC) | MIC ([7]; Proteus vulgaris, IFO3167, 10^6 cells/ml, Gram -, read-out: MIC) | MIC (P. mirabilis IID 994; Proteus mirabilis, IID994, read-out: MIC) | MIC [8, 28] | MIC ([9]; Klebsiella pneumoniae, read-out: MIC) | MIC ([11]; Citrobacter freundii, IID976, 10^6 cells/ml, Gram -, read-out: MIC) | MIC ([12]; Serratia marcescens, IID618, read-out: MIC) | MIC (Shigella sonnei IID 969; [29]) | MIC ([13]; Salmonella enterica, read-out: MIC)
1.56 µg/mL: MIC ([3]; Staphylococcus aureus, IID670) | MIC ([4]; Streptococcus pyogenes) | MIC (E. faecalis IID 682; Enterococcus faecalis, IID682) | MIC ([16]; Acinetobacter calcoaceticus, IID876) | MIC ([17]; Alcaligenes faecalis, 0114002)
0.0563 µg/mL: MIC ([5]; Escherichia coli, NIHJJC2, read-out: MIC)
0.1 µg/mL: MIC ([1]; Bacillus subtilis, PCI219, 10^6 cells/ml, Gram +, read-out: MIC) | MIC (K. pneumoniae 1-220S; Klebsiella pneumoniae, 1220S, 10^6 cells/ml, Gram -, read-out: MIC) | MIC ([10]; Enterobacter cloacae, IID977, read-out: MIC) | MIC ([15]; Yersinia enterocolitica, IID981, read-out: MIC)
0.39 µg/mL: MIC ([14]; Pseudomonas aeruginosa, V1, 10^6 cells/ml, Gram -, read-out: MIC)
3.13 µg/mL: MIC (S. pyogenes IID 692; Streptococcus pyogenes, IID692, read-out: MIC) | MIC (S. pneumoniae IID 552; Streptococcus pneumoniae, IID552, read-out: MIC) | MIC (P. aeruginosa IID 1210; Pseudomonas aeruginosa, IID1210, read-out: MIC)
50 µg/mL: MIC [27] | MIC (C. ramosum; Thomasclavelia ramosa, 10^6 cells/ml, Gram +, read-out: MIC)
